# Values of other authors, collected in US20130237424A1 (Cosmo Oil Co., LTD., priority 2010, published 2013).
# Test system: plants
# Settings: given with being dissolved in a solution
smiles,measurement,value
NCC(=O)CCC(=O)O [5-aminolevulinic acid],duration of growth promoting effect,about 2 weeks
